Patent publication US7605227B2, “Melanoma antigen peptide analogues” (MannKind Corporation, priority 2005, dated 2009)
Entries after “also recorded” stand apart in the source; their conditions may differ.

Assays:
[1] = test system: T cells that recognized native PSMA288-297 peptide; assay: Peptide immunization with PSMA analogs, IFN-gamma ELISPOT against native peptide; type: in vivo, HHD transgenic mice; settings: peptide + pI:C intranodal immunization
Procedure: Groups of HHD transgenic mice (n=8) were immunized with peptide (natural epitope PSMA288-297, or analogs bearing substitutions at primary or secondary anchor residues) by direct inoculation into the inguinal lymph nodes, with 25 μg in 25 μl of PBS+12.5 μg of pI:C to each lymph node at day 0, 3, 14 and 17.
Mice were sacrificed at 10 days after the last boost, and splenocytes prepared and assessed for IFN-γ production by ELISPOT analysis. […] At 48 hours after incubation, the assay was developed and the frequency of cytokine-producing T cells that recognized native PSMA288-297 peptide was automatically counted. The data is represented in FIG. 22 as the number of spot forming colonies/well (mean of triplicates±SD). […] To the extent that the poor immunogenicity of the native epitope reflects tolerance, the improved activity of these analogs represents tolerance breaking.

[2] = test system: T cells that recognized the PSMA288-297 peptide; assay: Plasmid prime, PSMA peptide boost, IFN-gamma ELISPOT; type: in vivo, HHD transgenic mice; settings: versus natural peptide boost
Procedure: Two groups of HHD transgenic mice (n=8) were immunized with plasmid expressing PSMA288-297 by direct inoculation into the inguinal lymph nodes with 25 μg in 25 μl of PBS to each lymph node at day 0, 3, 14 and 17. This was followed by two peptide boosts (25 μg) at day 28 and 31 with either the natural peptide or the I297V analog.
Mice were sacrificed at 10 days after the last boost, and splenocytes prepared and assessed for IFN-γ production by ELISPOT analysis. […] At 48 hours after incubation, the assay was developed and the frequency of cytokine-producing T cells that recognized the PSMA288-297 peptide was automatically counted. The data is represented in FIG. 23 as frequency of specific T cells normalized to 0.5 million responder cells (mean of triplicates+SD).

[3] = test system: PSMA+ A2+ LnCap cells; assay: PSMA immunization, ex vivo cytotoxicity against human tumor cells; type: in vivo, HHD transgenic mice
Procedure: HHD transgenic mice (n=4) were immunized with PSMA288-297 peptide (25 μg in 25 μl of PBS, plus 12.5 μg of pI:C to each lymph node) at day 0, 3, 14 and 17. One week after the boost, splenocytes were stimulated ex vivo with the native PSMA288-297 peptide and tested against ^51Cr-labeled human tumor cells (PSMA^+ A2^+ LnCap cells, or as negative control, LnCap cells coated with MHC class I-blocking antibody) at various E:T ratios.
HHD transgenic mice (n=4) were immunized with plasmid expressing the PSMA288-297 epitope by direct inoculation into the inguinal lymph nodes with 25 μg in 25 μl of PBS to each lymph node at day 0, 3, 14 and 17. This was followed by two peptide boosts (same amount) at day 28 and 31, with the analog I297V. One week after the boost, splenocytes were stimulated ex vivo with the native PSMA288-297 peptide and tested overnight against ^51Cr-labeled human tumor cells (Lncap, A2^+ PSMA^+; or 624.38 A2^+ PSMA^− or control 624.28 cells A2^− PSMA^−) at various E:T ratios.

[4] = molecular target: HLA-A*0201 (Homo sapiens, UniProt P04439, D140Y/D185E/D98H/E176V/E277Q/G131W/G231S/I119V/I121R/I166T/I218V/L300P/L318F/N151K/N90K/P208A/P217A/Q86G/Q94H/R138H/R169H/T345S); assay: iTopia off-rate assay (T1/2); type: binding; settings: PRAME425-433 and analogs
Procedure: Avidin-coated microtiter plates containing class I monomer loaded with a so-called placeholder peptide were used to evaluate peptide binding, affinity and off-rate. […] Assay buffers, anti-MHC-FITC mAb and beta2-microglobulin and control peptides were also supplied with the kits.
The plates were then incubated on the allele-specific monomer plates at 37° C. The plates were measured at multiple time points (0, 0.5, 1, 1.5, 2, 4, 6 and 8 hrs) for relative fluorescence intensity. The time required for 50% of the peptide to dissociate from the MHC monomer is defined as the T1/2 value (hrs).
The binding and offrate (T1/2) was determined for six native epitopes and their analogs which were designed to enhance the immune response.

[5] = test system: native epitope coated cells; assay: pCTLR2 prime, PRAME peptide boost, in vivo cytotoxicity (CFSE); parameters: species or system HHD transgenic mice

half time of dissociation [4] [h] | Substance | IFN-γ ELISPOT response against native epitope, in words [1] | frequency of native epitope-specific T cells (ELISPOT), in words [2] | ex vivo cytotoxicity against PSMA+ human tumor cells, in words [3] | in vivo cytotoxicity against native epitope, in words [5]
 | GLPSIPVHPV [PSMA 288-297(I297V)] | increased priming of immune responses against the native epitope | considerably higher | cytotoxic immunity against a PSMA^+ human tumor line; also recorded: effective in mediating cytotoxicity against LNCAP | 
17.7 | S425F: PRAME425-433 analog with Phe for Ser at P1 (FLLQHLIGL) [Peptide S425F] |  |  |  | capable of expanding the immunity against the native epitope
